Experimental data published in publication PMC12259270, “Sensory neuron–expressed FGF13 controls nociceptive signaling in diabetic neuropathy models” (The Journal of Clinical Investigation, 2025).
Residues, ends and D or L forms follow the SMILES beside them. *: point of attachment. Cbz = O=C(OCc1ccccc1)*; OtBu = CC(C)(C)O*

Experiments:
human Nav1.5 = target: T1, human Nav1.5 (Homo sapiens, UniProt Q14524); assay: Whole-cell patch-clamp, HEK293 cells stably expressing human Nav1.5; assay type: cell-based; conditions: for Activation / Long-term inactivation, 2nd Pulse / Long-term inactivation, 3rd Pulse / Long-term inactivation, 4th Pulse / Peak Density / Steady state inactivation / Tau (τ): HEK293 Nav1.5
T1 construct: expressed in transfected cells; host or cells: HEK293 stably expressing human Nav1.5
Procedure: Whole-cell patch clamp electrophysiology
HEK293-Nav1.7 cells, HEK293 stably expressing human Nav1.6 (HEK-Nav1.6), HEK293 stably expressing human Nav1.5 (HEK-Nav1.5), human hIPSC-derived sensory neurons (RealDRGTM from Anatomic Incorporated 1020F1-1M) and donor-derived DRG neurons were plated at low density on glass coverslips and processed for whole-cell patch clamp electrophysiology in voltage-clamp and/or current clamp mode. Whole-cell patch electrophysiological experiments were conducted following previously published studies (26). Current densities were obtained by dividing INa amplitude by membrane capacitance. Current –voltage relationships were generated by plotting current density as a function of the […]. Conductance (G Na) was calculated by the […]
where INa is the current amplitude at voltage Vm, and Erev is the Na+ reversal potential.
Activation curves were derived by plotting normalized GNa as a function of test potential and fitted using […]
Where GNa,Max is the maximum conductance, Va is the membrane potential of half-maximal activation, Em is the membrane voltage and k is the slope factor. For steady -state inactivation, normalized current amplitude (INa/INa,Max) at the test potential was plotted as a function of prepulse potential (Vm) and fitted using the […]
Where Vh is the potential of half-maximal inactivation, E m is the membrane voltage, and k is the slope factor.
Transient INa inactivation decay was estimated with the standard exponential equation. Inactivation time constant (tau, τ) was fitted with the following equation: […]
where I(t) is the amplitude of the current at time t and Iss is the steady-state current during a single voltage-step.
The goodness of fitting was determined by correlation coefficient (R), and the cutoff of R was set at 0.85. To observe effects on long-term inactivation (LTI), a four-step protocol was employed during which cells were subjected to four 0 mV, 20 ms depolarization pulses separated by −90 mV, 40 ms recovery intervals. To control for various cell sizes, the current densities were calculated by dividing INa peak current amplitude/membrane capacitance (Cm). To represent the fraction of channels entering into LTI, the peak INa observed during depolarization cycles 2-4 was normalized to the peak INa observed during depolarization cycle 1 (INa/INa,Cycle 1) and plotted as a function of the depolarization cycle.
The cumulative (frequency-dependent) use-dependency was determined by applying 20 pulses with a depolarization to −10 mV (50 ms duration) and 50 ms recovery intervals with a train of 20 pulses at 10 Hz from a holding potential at -70 mV. The current pulses were normalized to the first reco rded pulse and the currents at the 2nd to 20th pulses were compared. The same train was used to record use-dependency at various frequencies […]
The rate of recovery from inactivation was recorded at -80 mV with a standard repriming voltage protocol.
The cells were prepulsed to -20 mV for 20 ms to inactivate all currents, then driven back to the recovery potential (Vrec) for increasing recovery durations before the test pulse to 0 mV. The maximum pulse rate was 0.5 Hz. The […]
follows previous publications (16). The time constants were estimated from single exponential decay to time courses measured at recovery potentials ranging from -140 to -60 mV with the protocol as mentioned above.
Electrophysiological Recordings
HEK293 cells: Electrophysiological recordings in HEK293 stably expressing Nav1.7 (HEK-Nav1.7), Nav1.5 (HEK-Nav1.5) or Nav1.6 (HEK-Nav1.6) were performed at room temperature using a MultiClamp 700B or an Axopatch 200B amplifier (Molecular Devices) after incubating coverslips for 60 minutes either with 0.1% DMSO or 50 μM PW164 or ZL192 in the extracellular solution. The composition of recording solutions consisted of the […]
following salts: extracellular (mM): 140 NaCl, 3 KCl, 1 MgCl2, 1 CaCl2, 10 HEPES, 10 glucose, pH 7.3; […]
intracellular (mM): 130 CH3O3 SCs, 1 EGTA, 10 NaCl, 10 HEPES, pH 7.3. […]

[1] = mouse, in vivo

T1 sequence (Q14524 whole entry): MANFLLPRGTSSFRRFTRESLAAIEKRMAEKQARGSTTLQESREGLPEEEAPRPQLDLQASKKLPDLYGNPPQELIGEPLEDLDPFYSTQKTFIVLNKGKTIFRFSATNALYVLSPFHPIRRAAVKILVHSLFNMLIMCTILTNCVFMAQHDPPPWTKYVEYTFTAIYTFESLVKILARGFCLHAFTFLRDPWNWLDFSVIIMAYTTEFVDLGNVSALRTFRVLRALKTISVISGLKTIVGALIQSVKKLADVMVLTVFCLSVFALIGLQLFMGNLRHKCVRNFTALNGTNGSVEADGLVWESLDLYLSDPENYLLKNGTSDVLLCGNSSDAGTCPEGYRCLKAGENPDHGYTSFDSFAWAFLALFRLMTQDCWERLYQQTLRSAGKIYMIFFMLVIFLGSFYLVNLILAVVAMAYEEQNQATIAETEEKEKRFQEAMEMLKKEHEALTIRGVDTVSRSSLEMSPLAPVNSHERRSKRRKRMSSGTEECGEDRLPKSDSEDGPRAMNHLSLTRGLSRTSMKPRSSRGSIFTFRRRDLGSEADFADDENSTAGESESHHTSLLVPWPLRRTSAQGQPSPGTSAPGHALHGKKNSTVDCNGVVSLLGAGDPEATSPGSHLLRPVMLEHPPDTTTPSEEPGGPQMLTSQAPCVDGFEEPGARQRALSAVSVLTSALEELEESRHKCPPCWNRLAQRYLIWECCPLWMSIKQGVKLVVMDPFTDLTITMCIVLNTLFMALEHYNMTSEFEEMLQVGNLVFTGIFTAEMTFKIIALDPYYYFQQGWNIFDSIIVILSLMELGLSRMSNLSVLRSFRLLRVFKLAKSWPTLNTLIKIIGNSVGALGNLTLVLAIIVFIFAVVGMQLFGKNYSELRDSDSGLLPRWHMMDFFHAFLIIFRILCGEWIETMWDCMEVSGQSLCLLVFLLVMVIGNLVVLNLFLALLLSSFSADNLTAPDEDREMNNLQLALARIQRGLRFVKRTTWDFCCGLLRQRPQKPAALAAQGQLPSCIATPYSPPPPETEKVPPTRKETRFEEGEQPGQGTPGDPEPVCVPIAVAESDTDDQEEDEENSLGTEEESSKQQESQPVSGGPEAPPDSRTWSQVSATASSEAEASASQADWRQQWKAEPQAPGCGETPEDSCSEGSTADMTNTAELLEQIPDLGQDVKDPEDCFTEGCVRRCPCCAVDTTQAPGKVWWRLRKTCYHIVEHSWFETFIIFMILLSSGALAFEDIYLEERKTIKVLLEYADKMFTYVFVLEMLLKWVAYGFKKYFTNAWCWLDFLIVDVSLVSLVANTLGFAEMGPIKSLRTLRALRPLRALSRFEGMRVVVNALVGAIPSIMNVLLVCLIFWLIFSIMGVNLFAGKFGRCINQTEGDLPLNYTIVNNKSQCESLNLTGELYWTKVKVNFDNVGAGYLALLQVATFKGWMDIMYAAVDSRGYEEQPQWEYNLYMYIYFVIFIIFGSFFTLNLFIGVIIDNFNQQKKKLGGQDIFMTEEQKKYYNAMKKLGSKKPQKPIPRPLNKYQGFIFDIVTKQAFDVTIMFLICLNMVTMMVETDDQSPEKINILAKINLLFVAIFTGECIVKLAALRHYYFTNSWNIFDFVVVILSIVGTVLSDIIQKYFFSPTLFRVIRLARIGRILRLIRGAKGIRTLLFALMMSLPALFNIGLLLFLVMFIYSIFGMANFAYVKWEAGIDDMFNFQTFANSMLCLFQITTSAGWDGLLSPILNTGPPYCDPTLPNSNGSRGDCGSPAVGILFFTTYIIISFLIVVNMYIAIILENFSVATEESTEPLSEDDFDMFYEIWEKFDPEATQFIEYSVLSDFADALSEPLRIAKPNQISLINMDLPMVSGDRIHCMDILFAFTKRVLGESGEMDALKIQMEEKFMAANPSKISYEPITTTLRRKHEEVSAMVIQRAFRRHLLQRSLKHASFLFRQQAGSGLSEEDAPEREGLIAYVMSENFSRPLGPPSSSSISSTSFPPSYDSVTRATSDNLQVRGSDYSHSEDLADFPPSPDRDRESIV

Q: With COC(=O)[C@@H](NC(=O)[C@H](CCC(=O)OC(C)(C)C)NC(=O)[C@H](CC(C)C)NC(=O)[C@@H]1CCCN1C(=O)OCc1ccccc1)C(C)C [PW164] (Cbz-PLE(OtBu)V-OMe) as the compound, how does the Activation (human Nav1.5; FGF13-GFP + PW164) read?
A: −37.38 ± 2.1 mV

Q: What about the “Long-term inactivation, 2nd Pulse” value (human Nav1.5; FGF13-GFP + PW164) of the same compound?
A: −89.1 ± 1.71 % maximal Na+ current

Q: What about the “Long-term inactivation, 3rd Pulse” value (human Nav1.5; FGF13-GFP + PW164) of the same compound?
A: −86.58 ± 1.69 % maximal Na+ current

Q: And the “Long-term inactivation, 4th Pulse” value (human Nav1.5; FGF13-GFP + PW164)?
A: −84.72 ± 1.83 % maximal Na+ current

Q: And the Peak Density (human Nav1.5; FGF13-GFP + PW164)?
A: −203.0 ± 15.6 pA/pF

Q: What about the Steady state inactivation (human Nav1.5; FGF13-GFP + PW164) of the same compound?
A: −75.9 ± 2.1 mV

Q: And the “Tau (τ)” value (human Nav1.5; FGF13-GFP + PW164)?
A: 0.90 ± 0.04 ms

Q: What about the Activation (human Nav1.5; GFP + PW164) of the same compound?
A: −38.11 ± 1.8 mV

Q: And the “Long-term inactivation, 2nd Pulse” value (human Nav1.5; GFP + PW164)?
A: −91.7 ± 1.27 % maximal Na+ current

Q: What about the “Long-term inactivation, 3rd Pulse” value (human Nav1.5; GFP + PW164) of the same compound?
A: −85.98 ± 2.18 % maximal Na+ current

Q: What about the “Long-term inactivation, 4th Pulse” value (human Nav1.5; GFP + PW164) of the same compound?
A: −84.62 ± 2.28 % maximal Na+ current

Q: What about the Peak Density (human Nav1.5; GFP + PW164) of the same compound?
A: −314.9 ± 17.9 pA/pF

Q: And the Steady state inactivation (human Nav1.5; GFP + PW164)?
A: −82.7 ± 1.5 mV

Q: And the “Tau (τ)” value (human Nav1.5; GFP + PW164)?
A: 1.12 ± 0.07 ms

Q: And the “activity on Nav1.5 currents” value (human Nav1.5; Nav1.5-expressing HEK293 cells alone or with FGF13-1b or FGF13-1a)?
A: inactive

Q: And the brain/plasma ratio [1]?
A: 0

Q: What about the “volume of distribution (Vz)” value [1] of the same compound?
A: 3.8 ± 0.71 L/kg

Q: What about the Tmax ([1]; 15 mg/kg) of the same compound?
A: 0.083
